Results on 13 molecules are retold here after US6423689B1, “Peptidyl calcium channel blockers” (Warner-Lambert Company, priority 1997, dated 2002).

Series [1] addresses T1, N-type Ca2+ channels in superior cervical ganglion (SCG) neurons (Rattus norvegicus, UniProt Q02294).
T1 construct: from tissue
As to the kind of experiment: Whole-cell voltage clamp, N-type Ca2+ current in SCG neurons. The format is cell-based. To be noted: for IC50: read-out: Inhibition of N-type Ca2+ Current IC50. The method, then:
(§1) Electrophysiological techniques were used to measure the effects of experimental compounds on voltage-gated Ca^2+, Na^+ and K^+ channels. […] Sodium and potassium channel currents were measured from acutely dissociated SCG neurons.
(§2) Dissociation of the neurons from the ganglia was accomplished using a 30 to 45 minute treatment in 0.25% trypsin, similar to methods outlined in Higgins, et al. [see Higgins D., et al. “Tissue culture of mammalian autonomic neurons.” In Banker G. and Goslin K. (Eds), Culturing Nerve Cells, Cambridge, Mass., MIT Press (1991)].
(§3) Ca^2+, Na^+ and K^+ channel currents in SCG neurons were measured using conventional single electrode whole-cell voltage-clamp techniques, outlined in Hamill, et al., (see Hamill O.P., et al. “Improved patch-clamp techniques for high resolution current recordings from cells and cell-free membrane patches”. Pflugers Arch. 1981;391:85-100) For Ca^2+ channel experiments, the external bathing solution contained tetraethylammonium chloride (100 mM), choline chloride (52 mM), NaCl (15 mM), HEPES (10 mM), glucose (5.6 mM), CaCl2 (2 mM), and MgCl2 (0.8 mM) pH 7.35 with KOH; with the internal pipette solution containing cesium methane sulfonate (140 mM), EGTA (10 mM), and HEPES (10 mM), supplemented with 5 mM Mg^2+ -ATP on the day of the experiment, pH 7.4 with CsOH. For Na^+ and K^+ channel experiments, the external bathing solution contained NaCl (150 mM), KCl (5 mM), MgCl2 (1.1 mM), CaCl2 (2.6 mM), Na-HEPES (10 mM), and glucose (10 mM), pH 7.4; with the internal pipette solution containing KCl (80 mM), K-gluconate (50 mM), HEPES (10 mM), and EGTA (10 mM), pH 7.4 with KOH. Experimental compounds were diluted into the external solution and applied to the soma of cells by local perfusion from large diameter (20-50 μm) glass micropipettes or from a U-tube applicator.
After obtaining a whole-cell recording, Ca^2+ channels were elicited by stepping to test potentials between −40 and +20 mV for 120 msec from the holding potential of −90 mV to determine if the amplitude of the current and clamp control were adequate for evaluation of drug effects. Ca^2+ channel currents were evoked by stepping from a holding potentials between −65 mV and −−55 mV to a test potential of +20 mV for 150 msec every 40 seconds. The amplitude of the Ca^2+ channel currents were compared before and during drug application and drug effects expressed as percent inhibition of the amplitude of control currents.

Series [2] deals with Na+ channels in superior cervical ganglion (SCG) neurons. As to the kind of experiment: Whole-cell voltage clamp, Na+ current in SCG neurons. The format is cell-based, rat. Here is the method:
as §1, §2, §3
(§4) For Na^+ and K^+ channel currents, following the determination of the I/V relationship for each cell in control solution, currents were evoked from a holding potential between −65 and −55 mV by stepping every 10 sec to a test potential of either 0 mV for Na^+ or +50 mV for K^+ current for a duration of 35 msec. Peak inward current was measured for Na^+ and sustained current for K^+ channel currents. […] Test compounds were applied until steady-state block was achieved. Data were expressed as percent inhibition of control amplitudes for Na^+ and K^+ channel currents.

The target in series [3] is T2, N-type Ca2+ channels in IMR-32 cells (Homo sapiens, UniProt Q00975).
T2 construct: host or cells: IMR-32 cells, differentiated with dibutyryl cAMP and bromodeoxyuridine
T2 sequence (Q00975 whole entry): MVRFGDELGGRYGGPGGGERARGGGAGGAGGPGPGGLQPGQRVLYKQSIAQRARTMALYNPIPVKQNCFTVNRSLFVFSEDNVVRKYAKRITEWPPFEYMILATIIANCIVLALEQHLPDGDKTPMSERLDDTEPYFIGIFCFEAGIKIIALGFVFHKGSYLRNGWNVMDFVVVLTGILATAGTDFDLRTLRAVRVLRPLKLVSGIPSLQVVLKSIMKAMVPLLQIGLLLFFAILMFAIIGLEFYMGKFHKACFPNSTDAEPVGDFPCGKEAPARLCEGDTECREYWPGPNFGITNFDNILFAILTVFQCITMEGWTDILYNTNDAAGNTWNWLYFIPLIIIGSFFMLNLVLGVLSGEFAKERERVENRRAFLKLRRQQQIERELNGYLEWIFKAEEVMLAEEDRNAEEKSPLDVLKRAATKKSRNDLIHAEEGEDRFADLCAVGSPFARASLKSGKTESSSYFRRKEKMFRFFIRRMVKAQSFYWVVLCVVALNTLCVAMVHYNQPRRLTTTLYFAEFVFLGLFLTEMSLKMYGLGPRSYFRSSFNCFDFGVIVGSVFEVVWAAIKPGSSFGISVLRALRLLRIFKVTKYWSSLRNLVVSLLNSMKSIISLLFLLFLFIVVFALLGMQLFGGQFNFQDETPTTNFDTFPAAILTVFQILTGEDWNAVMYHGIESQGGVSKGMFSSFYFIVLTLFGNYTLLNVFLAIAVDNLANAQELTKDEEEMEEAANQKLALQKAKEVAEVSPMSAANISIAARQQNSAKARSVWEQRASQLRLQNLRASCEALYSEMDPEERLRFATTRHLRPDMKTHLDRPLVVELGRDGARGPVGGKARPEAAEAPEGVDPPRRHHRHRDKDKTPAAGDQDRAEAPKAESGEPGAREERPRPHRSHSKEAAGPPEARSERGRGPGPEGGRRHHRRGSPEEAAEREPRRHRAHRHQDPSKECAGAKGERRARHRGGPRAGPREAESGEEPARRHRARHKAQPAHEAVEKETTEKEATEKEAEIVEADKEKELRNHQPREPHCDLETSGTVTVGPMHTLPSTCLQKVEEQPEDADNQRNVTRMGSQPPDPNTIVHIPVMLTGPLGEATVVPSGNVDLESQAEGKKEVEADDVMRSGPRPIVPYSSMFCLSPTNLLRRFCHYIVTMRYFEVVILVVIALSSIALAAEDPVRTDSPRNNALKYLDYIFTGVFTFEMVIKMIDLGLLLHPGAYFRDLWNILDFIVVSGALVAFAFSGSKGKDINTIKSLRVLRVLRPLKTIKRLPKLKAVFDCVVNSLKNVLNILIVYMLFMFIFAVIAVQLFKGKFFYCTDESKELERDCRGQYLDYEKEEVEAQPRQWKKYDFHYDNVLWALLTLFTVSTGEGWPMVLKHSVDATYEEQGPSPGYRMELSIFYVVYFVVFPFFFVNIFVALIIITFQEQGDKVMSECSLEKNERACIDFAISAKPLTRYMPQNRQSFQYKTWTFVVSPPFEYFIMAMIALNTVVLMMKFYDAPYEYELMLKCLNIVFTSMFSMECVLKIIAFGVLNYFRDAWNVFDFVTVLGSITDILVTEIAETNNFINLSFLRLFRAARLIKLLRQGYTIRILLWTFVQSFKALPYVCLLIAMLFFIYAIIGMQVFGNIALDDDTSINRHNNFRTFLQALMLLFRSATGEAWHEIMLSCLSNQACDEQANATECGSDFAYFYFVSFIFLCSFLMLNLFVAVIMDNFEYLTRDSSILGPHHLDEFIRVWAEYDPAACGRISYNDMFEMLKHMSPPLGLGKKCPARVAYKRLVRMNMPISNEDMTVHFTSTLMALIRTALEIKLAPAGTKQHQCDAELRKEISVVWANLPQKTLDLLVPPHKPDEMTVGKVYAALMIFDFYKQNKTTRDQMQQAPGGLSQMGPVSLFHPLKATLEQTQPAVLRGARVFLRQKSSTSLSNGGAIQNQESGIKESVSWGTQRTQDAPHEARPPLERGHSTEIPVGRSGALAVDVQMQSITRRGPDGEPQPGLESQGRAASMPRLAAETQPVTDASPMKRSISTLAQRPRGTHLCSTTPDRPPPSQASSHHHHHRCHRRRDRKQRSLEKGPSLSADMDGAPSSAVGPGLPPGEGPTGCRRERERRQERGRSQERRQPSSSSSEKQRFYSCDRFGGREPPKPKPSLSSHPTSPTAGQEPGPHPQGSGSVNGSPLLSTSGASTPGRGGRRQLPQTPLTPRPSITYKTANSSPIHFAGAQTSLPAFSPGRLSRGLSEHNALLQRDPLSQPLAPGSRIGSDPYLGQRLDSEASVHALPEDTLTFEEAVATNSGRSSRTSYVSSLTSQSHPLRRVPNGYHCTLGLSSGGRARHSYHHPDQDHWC
T2 sequence (P54289 25-956 partner limits assumed): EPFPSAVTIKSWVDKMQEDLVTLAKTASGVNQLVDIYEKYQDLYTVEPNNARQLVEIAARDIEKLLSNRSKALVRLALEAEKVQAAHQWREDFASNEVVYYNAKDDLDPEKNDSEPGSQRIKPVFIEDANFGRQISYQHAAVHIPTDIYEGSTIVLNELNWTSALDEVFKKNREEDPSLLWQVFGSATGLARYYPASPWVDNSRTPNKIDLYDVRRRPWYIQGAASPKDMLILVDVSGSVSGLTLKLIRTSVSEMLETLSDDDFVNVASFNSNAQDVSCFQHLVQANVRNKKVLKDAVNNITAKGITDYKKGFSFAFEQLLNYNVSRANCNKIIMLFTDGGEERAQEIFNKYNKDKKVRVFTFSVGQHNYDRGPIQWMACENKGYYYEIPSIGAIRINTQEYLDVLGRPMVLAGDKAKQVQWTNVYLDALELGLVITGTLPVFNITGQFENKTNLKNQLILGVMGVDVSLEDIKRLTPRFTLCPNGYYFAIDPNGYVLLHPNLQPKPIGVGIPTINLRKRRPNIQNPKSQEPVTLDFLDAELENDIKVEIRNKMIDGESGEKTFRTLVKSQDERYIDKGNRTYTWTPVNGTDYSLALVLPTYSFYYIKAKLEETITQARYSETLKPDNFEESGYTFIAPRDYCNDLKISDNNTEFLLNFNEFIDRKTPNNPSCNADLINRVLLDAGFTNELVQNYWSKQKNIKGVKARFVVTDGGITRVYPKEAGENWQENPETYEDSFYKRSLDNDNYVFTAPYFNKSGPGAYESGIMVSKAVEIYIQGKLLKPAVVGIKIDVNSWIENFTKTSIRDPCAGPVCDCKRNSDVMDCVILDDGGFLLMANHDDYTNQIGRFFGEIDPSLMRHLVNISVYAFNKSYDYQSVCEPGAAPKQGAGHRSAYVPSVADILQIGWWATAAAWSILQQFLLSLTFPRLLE
T2 sequence (P54289 957-1103 partner limits assumed): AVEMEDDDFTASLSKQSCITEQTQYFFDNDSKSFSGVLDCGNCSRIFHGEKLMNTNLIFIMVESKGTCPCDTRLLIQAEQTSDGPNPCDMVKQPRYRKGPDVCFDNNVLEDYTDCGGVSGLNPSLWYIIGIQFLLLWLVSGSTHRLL
T2 sequence (P54284 whole entry partner): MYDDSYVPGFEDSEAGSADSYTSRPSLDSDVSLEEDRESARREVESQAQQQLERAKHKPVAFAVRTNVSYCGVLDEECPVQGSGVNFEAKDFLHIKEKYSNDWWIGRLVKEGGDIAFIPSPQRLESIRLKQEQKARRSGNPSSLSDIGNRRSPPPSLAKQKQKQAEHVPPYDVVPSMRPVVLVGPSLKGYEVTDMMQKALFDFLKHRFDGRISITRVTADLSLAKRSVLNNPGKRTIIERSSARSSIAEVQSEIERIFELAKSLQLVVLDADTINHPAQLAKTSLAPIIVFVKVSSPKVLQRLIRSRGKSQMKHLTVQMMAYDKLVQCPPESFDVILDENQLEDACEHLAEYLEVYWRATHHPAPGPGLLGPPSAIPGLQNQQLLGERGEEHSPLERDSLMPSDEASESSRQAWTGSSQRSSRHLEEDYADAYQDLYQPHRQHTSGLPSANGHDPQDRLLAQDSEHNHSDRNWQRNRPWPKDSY
As to the kind of experiment: Inhibition of N-type calcium flux in IMR-32 cells (Indo-1 fluorescence, nitrendipine present). The format is cell-based. To be noted: for inhibition at 1 µM / inhibition at 10 µM: IMR-32; for IC50: IMR-32 cells, 5 μM nitrendipine, K+ depolarization. In a few lines:
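With L-type flux blocked by 5 μM nitrendipine, N-type Ca2+ entry was read as the Indo-1 emission ratio (400/490 nm, excitation 350 nm) at 30° C after KCl depolarization.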

In series [4] the test system is K+ channels in superior cervical ganglion (SCG) neurons. As to the kind of experiment: Whole-cell voltage clamp, K+ current in SCG neurons. The format is cell-based, rat. The method, then:
as §1, §2, §3, §4

Usually inhibition stands for the percentage by which the read-out fell short of the control. The term IC50 denotes the point on the concentration scale where inhibition reaches its midpoint. As a reminder, the melting point is the temperature of the solid-liquid transition. `CCC(C)[C@H](NC(=O)N1CCCCCC1)C(=O)N[C@@H](Cc1ccc(OCc2ccccc2)cc1)C(=O)OC(C)(C)C` (stereo partly drawn) [Example 5, (S)-2-{(S)-2-[(Azepane-1-carbonyl)-amino]-3-methyl-pentanoylamino}-3-(4-benzyloxy-phenyl)-propionic acid tert-butyl ester]: the melting point lay within 53 to 57 °C. Moreover, the inhibition at 10 µM in series [1] (10 μM) turned out to be 70%. In addition, the concentration for half-maximal inhibition (IC50) in series [1] was 620 nM. Also, the “Inhibition of Na+ Current, % Inhibition at 10 μM” value in series [2] was 10%. In series [3], the inhibition at 1 µM is 60%, the inhibition at 10 µM was found to be 94% and the IC50 worked out at 820 nM. In addition, the “Inhibition of K+ Current, % Inhibition at 10 μM” value in series [4] was found to be 13%.

Consider `CC(C)C[C@H](NC(=O)N1CCN(c2ccccc2)CC1)C(=O)N[C@@H](Cc1ccc(OCc2ccccc2)cc1)C(=O)OC(C)(C)C` [Example 10, [S-(R*,R*)]-3-(4-Benzyloxy-phenyl)-2-{4-methyl-2-[(4-phenyl-piperazine-1-carbonyl)-amino]-pentanoylamino}-propionic acid tert-butyl ester], for which the melting point lay within 67 to 69 °C. In series [3], the inhibition at 1 µM is 46%, the inhibition at 10 µM is 73% and the concentration for half-maximal inhibition (IC50) came to 2100 nM.

In turn, `COc1ccc(C[C@H](NC(=O)[C@H](CC(C)C)NC(=O)N2CCCCCC2)C(=O)OC(C)(C)C)cc1` [Example 13, [S-(R*,R*)]-2-{2-[(Azepane-1-carbonyl)-amino]-4-methyl-pentanoylamino}-3-(4-methoxy-phenyl)-propionic acid tert-butyl ester] showed a melting point of 105 to 106 °C. Further, in series [3], the inhibition at 1 µM amounted to 40%, the inhibition at 10 µM worked out at 86% and the IC50 was 1700 nM.

On to `COC(=O)[C@H](Cc1ccc(OCc2ccccc2)cc1)NC(=O)[C@H](CC(C)C)NC(=O)N1CCCCCC1` [Example 15, [S-(R*,R*)]-2-{2-[(Azepane-1-carbonyl)-amino]-4-methyl-pentanoylamino}-3-(4-benzyloxy-phenyl)-propionic acid methyl ester], for which the melting point lay within 72 to 74 °C. Moreover, in series [3], the inhibition at 1 µM stood at 45%, the inhibition at 10 µM was found to be 99% and the half-inhibitory concentration (IC50) turned out to be 1100 nM.

In turn, `CC(C)C[C@H](NS(=O)(=O)c1ccc(C(C)C)cc1)C(=O)N[C@@H](Cc1ccc(OCc2ccccc2)cc1)C(=O)OC(C)(C)C` [Example 37, [S-(R*,R*)]-3-(4-Benzyloxy-phenyl)-2(S)-[2(S)-(4-isopropyl-benzenesulfonylamino)-4-methyl-pentanoylamino]-propionic acid tert-butyl ester] came in with a melting point of 147 to 148 °C. For the same molecule, the “Inhibition of Na+ Current, % Inhibition at 10 μM” value in series [2] is on record as 5%. In series [3], the inhibition at 1 µM amounted to 65%, the inhibition at 10 µM worked out at 91% and the IC50 was determined as 280 nM. The “Inhibition of K+ Current, % Inhibition at 10 μM” value in series [4] turned out to be 9%.

`CC(C)C[C@H](NS(=O)(=O)c1ccc(Br)cc1)C(=O)N[C@@H](Cc1ccc(OCc2ccccc2)cc1)C(=O)OC(C)(C)C` [Example 38, [S-(R*,R*)]-2-{2-[(4-Bromobenzene-1-sulfonyl-carbonyl)-amino]-4-methyl-pentanoylamino-3-(4-benzyloxyphenyl)-propionic acid, tert-butyl ester] displayed a melting point of 148 to 149 °C. Also, in series [3], the inhibition at 1 µM was 48%, the inhibition at 10 µM stood at 83% and the concentration for half-maximal inhibition (IC50) came out at 940 nM.

Molecule `CC(C)C[C@H](NS(=O)(=O)N1CCCCCC1)C(=O)N[C@@H](Cc1ccc(OCc2ccccc2)cc1)C(=O)OC(C)(C)C` [Example 40, [S-(R*,R*)]-2-[2-(Azepane-1-sulfonylamino)-4-methyl-pentanoylamino]-3-(4-benzyloxy-phenyl)-propionic acid tert-butyl ester] yielded a melting point of 123 to 124 °C. Further, in series [3], the inhibition at 1 µM came to 48%, the inhibition at 10 µM was 86% and the IC50 was determined as 1000 nM.

As to `CC(C)C[C@H](NS(=O)(=O)N1CCCCC1)C(=O)N[C@@H](Cc1ccc(OCc2ccccc2)cc1)C(=O)OC(C)(C)C` [Example 41, [S-(R*,R*)]-3-(4-Benzyloxy-phenyl)-2-[4-methyl-2-(piperidine-1-sulfonylamino)-pentanoylamino]-propionic acid tert-butyl ester], the melting point is 125 to 126 °C. Besides, in series [3], the inhibition at 1 µM is 51%, the inhibition at 10 µM was found to be 86% and the IC50 was found to be 800 nM.

`CC(C)C[C@H](NS(=O)(=O)N1CCOCC1)C(=O)N[C@@H](Cc1ccc(OCc2ccccc2)cc1)C(=O)OC(C)(C)C` [Example 42, [S-(R*,R*)]-3-(4-Benzyloxy-phenyl)-2-[4-methyl-2-(morpholine-4-sulfonylamino)-pentanoylamino]-propionic acid tert-butyl ester]: the melting point lay in the range of 54 to 57 °C. In addition, the inhibition at 10 µM in series [1] (10 μM) is 64%. Besides, in series [3], the inhibition at 1 µM was 50%, the inhibition at 10 µM is 95% and the half-inhibitory concentration (IC50) was 950 nM.

On to `CC(C)C[C@H](NC(=S)NC1CCCCC1)C(=O)N[C@@H](Cc1ccc(OCc2ccccc2)cc1)C(=O)OC(C)(C)C` [Example 47, [S-(R*,R*)]-3-(4-benzyloxy-phenyl)-2-[2-(3-cyclohexyl-thioureido)-4-methyl-pentanoylamino}-propionic acid, tert-butyl ester], for which the melting point was in the range of 161 to 162 °C. Also, in series [3], the inhibition at 1 µM was found to be 42%, the inhibition at 10 µM was found to be 63% and the IC50 amounted to 1300 nM.

The molecule `CC(C)C[C@H](NC(=S)Nc1ccccc1Cl)C(=O)N[C@@H](Cc1ccc(OCc2ccccc2)cc1)C(=O)OC(C)(C)C` [Example 48, [S-(R*,R*)]-3-(4-Benzyloxy-phenyl)-2-{2-[3-(2-chloro-phenyl)-thioureido]-4-methyl-pentanoylamino}-propionic acid tert-butyl ester] had a melting point of 66 to 67 °C. In series [3], the inhibition at 1 µM amounted to 52%, the inhibition at 10 µM came to 81% and the concentration for half-maximal inhibition (IC50) is 1200 nM.

Molecule `CC(C)CC(NC(=O)N1CCCCCC1)C(=O)NC(Cc1ccc(OCc2ccccc2)cc1)C(=O)NC(C)C(C)C` (stereo not drawn) [Example 191, Azepane-1-carboxylic acid {1-[2-(4-benzyloxy-phenyl)-1-(1,2-dimethyl-propylcarbamoyl)-ethylcarbamoyl]-3-methyl-butyl}-amide] came in with an inhibition at 10 µM in series [1] (10 μM) of 61%. Besides, the IC50 in series [1] was 4370 nM; in series [2] (read-out: Inhibition of Na+ Current IC50) it was 42300 nM; in series [3] it was 720 nM; in series [4] (read-out: Inhibition of K+ Current IC50), 5700 nM. The “Inhibition of Na+ Current, % Inhibition at 10 μM” value in series [2] was determined as 38%. Besides, in series [4], the “Inhibition of K+ Current, % Inhibition at 10 μM” value was found to be 64%.

For the molecule `CC(C)CC(NC(=O)N1CCCCCC1)C(=O)NC(Cc1ccc(OCc2ccccc2)cc1)C(=O)NC(C)C(C)C` (stereo not drawn) [Example 192, Azepane-1-carboxylic acid {1-[2-(4-benzyloxy-phenyl)-1-(1,2-dimethylpropylcarbamoyl)-ethylcarbamoyl]-3-methyl-butyl}-amide], in series [1] (10 μM), the “Inhibition of N-type Ca2+ Current, % Inhibition at 10 μM” value is 58%. The IC50 in series [1] stood at 2840 nM; in series [3] it was 920 nM. Moreover, the “Inhibition of Na+ Current, % Inhibition at 10 μM” value in series [2] was 26%. Further, in series [4], the “Inhibition of K+ Current, % Inhibition at 10 μM” value came out at 58%.
